# Molecular target: LRRK2 wt (Homo sapiens, UniProt Q5S007)
# Experiment: Kinase activity inhibition assay (ADP-Glo), LRRK2 wt
# Assay type: biochemical
# Settings: read-out: LRRK2 wt inhibition rate at 100 nM, ATP 20 µM, compound at 100 nM
# Method: The kinase activity inhibition assay was performed by ICE Bioscience (Beijing) using ADP-Glo and HTRF methods.
# Table 1.1-1 ADP-Glo Buffer
# Table 1.2-1 ADP-Glo Kinase and Substrate Formulation
# SD is the standard error, and AVE is the average value. Table 2-1 LRRK2 Activity Inhibition Test Results
# Chain of LRRK2 wt (Q5S007 whole entry): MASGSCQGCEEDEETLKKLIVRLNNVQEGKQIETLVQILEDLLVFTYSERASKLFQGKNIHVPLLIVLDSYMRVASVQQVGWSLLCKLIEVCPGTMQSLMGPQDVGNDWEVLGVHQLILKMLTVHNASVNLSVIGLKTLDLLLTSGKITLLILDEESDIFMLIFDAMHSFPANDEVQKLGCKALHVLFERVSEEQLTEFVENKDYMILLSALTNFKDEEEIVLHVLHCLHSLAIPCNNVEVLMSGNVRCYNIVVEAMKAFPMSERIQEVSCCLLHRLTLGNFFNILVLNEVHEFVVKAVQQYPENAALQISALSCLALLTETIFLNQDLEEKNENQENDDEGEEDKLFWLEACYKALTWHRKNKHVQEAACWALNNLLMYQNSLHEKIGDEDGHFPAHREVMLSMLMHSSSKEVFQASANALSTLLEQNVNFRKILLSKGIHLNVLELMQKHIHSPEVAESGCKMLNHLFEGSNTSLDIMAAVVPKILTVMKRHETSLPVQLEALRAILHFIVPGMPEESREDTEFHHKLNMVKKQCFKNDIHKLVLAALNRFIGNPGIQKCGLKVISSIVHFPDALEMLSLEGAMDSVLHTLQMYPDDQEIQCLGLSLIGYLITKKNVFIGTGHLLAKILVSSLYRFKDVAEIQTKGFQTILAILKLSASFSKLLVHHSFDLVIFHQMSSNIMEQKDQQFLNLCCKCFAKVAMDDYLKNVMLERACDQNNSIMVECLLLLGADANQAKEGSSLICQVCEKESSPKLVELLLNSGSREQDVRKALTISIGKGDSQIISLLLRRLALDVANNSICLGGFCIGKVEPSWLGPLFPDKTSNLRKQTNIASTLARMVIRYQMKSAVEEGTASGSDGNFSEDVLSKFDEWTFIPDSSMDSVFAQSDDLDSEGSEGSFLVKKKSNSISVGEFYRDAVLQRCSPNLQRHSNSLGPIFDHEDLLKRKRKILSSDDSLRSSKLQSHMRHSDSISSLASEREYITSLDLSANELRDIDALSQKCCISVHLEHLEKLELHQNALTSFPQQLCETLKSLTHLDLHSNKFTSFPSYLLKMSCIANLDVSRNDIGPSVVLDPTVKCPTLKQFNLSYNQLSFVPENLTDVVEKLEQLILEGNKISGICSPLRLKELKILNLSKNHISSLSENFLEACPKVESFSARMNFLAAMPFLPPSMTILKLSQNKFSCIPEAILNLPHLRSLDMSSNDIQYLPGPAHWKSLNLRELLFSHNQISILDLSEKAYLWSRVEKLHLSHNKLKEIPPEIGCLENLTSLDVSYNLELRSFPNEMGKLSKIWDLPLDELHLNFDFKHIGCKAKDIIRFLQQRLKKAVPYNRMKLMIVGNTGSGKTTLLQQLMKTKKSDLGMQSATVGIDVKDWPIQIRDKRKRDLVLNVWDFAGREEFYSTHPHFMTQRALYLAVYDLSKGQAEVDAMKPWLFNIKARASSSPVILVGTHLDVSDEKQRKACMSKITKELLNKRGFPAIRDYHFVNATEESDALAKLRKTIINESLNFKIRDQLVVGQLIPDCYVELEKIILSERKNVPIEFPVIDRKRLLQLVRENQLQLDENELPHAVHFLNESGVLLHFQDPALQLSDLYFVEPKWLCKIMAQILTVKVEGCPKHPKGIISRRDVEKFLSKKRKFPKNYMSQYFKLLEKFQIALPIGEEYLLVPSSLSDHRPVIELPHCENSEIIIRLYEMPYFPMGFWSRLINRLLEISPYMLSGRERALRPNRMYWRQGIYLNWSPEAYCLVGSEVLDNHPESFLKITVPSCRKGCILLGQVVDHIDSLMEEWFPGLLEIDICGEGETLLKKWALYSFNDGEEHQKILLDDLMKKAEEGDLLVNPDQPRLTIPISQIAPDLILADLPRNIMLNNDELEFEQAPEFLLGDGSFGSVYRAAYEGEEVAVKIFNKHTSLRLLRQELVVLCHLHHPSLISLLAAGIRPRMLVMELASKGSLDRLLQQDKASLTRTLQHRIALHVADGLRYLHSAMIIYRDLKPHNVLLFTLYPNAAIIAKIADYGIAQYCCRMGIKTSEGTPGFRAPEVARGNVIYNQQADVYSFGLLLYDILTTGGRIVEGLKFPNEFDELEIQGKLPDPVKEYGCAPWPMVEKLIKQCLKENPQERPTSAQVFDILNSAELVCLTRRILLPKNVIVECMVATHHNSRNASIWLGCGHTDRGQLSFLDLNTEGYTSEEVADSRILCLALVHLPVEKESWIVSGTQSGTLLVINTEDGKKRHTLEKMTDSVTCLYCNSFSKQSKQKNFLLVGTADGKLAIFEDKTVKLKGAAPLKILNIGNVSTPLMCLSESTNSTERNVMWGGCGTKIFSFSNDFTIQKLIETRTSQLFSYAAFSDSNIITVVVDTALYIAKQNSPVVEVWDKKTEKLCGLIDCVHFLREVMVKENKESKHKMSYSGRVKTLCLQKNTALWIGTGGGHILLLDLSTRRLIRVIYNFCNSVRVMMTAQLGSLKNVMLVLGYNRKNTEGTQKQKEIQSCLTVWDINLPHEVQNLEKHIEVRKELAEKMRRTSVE
row,Structure (SMILES),inhibition at 0.1 µM [%]
1,"Cc1nn2cc1Nc1ncc(C(F)(F)F)c(n1)NCCCOCCNC(=O)C2(C)C [Example T-2, (E)-3^3,4,4-Trimethyl-1^5-(trifluoromethyl)-3^1H-9-oxa-2,6,13-triaza-1(2,4)-pyrimidina-3(4,1)-pyrazolacyclotridecan-5-one]",55
2,"Cc1nn2cc1Nc1ncc3[nH]nc(c3n1)CCCNC(=O)C2(C)C [Example T-9, (E)-3^3,4,4-Trimethyl-1^1H,3^1H-2,6-diaza-1(5,3)pyrazolo[4,3-d]pyrimidine-3(4,1)-pyrazolacyclononan-5-one]",-0.5
3,"Cc1nn2cc1Nc1ncc(C(F)(F)F)c(n1)NCCCn1cc(nn1)C2(C)C [Example T-16, (3^4E,5^4Z)-3^3,4,4-Trimethyl-1^5-(trifluoromethyl)-3^1H,5^1H-2,9-diaza-1(2,4)-pyrimidina-5(4,1)-triazole-3(4,1)-pyrazolacyclononane]",86.1
4,"Cc1nn2cc1Nc1ncc(C(F)(F)F)c(n1)NCCCn1ncc(n1)C2(C)C [Example T-17, (3^4E,5^3Z)-3^3,4,4-Trimethyl-1^5-(trifluoromethyl)-3^1H,5^2H-2,9-diaza-1(2,4)-pyrimidina-5(4,2)-triazole-3(4,1)-pyrazolacyclononane]",96.9
5,"Cc1nn2cc1Nc1ncc3[nH]cc(c3n1)CCCNC(=O)C2(C)C [Example T-18, (E)-3^3,4,4-Trimethyl-1^5H,3^1H-2,6-diaza-1(2,7)-pyrrolo[3,2-d]pyrimidine-3(4,1)-pyrazolacyclononan-5-one]",6.61
6,"Cc1nn2cc1Nc1ncc3c(n1)c(nn3C)CCCNC(=O)C2(C)C [Example T-19, (E)-1^1,3^3,4,4-Tetramethyl-1^1H,3^1H-2,6-diaza-1(5,3)-pyrazolo[4,3-d]pyrimidine-3(4,1)-pyrazinacyclononan-5-one]",11.6
7,"Cc1nn2cc1Nc1ncc3nn(C)c(c3n1)CCCNC(=O)C2(C)C [Example T-20, (1^3E,1^4Z,3^4E)-1^2,3^3,4,4-Tetramethyl-1^2H,3^1H-2,6-diaza-1(5,3)-pyrazolo[4,3-d]pyrimidine-3(4,1)-pyrazinacyclononan-5-one]",0.84
8,"Cc1nn2cc1Nc1ncc3c(n1)c(cn3C)CCCNC(=O)C2(C)C [Example T-21, (E)-1^5,3^3,4,4-Tetramethyl-1^5H,3^1H-2,6-diaza-1(2,7)-pyrrolo[3,2-d]pyrimidine-3(4,1)-pyrazolacyclononan-5-one]",60.1
9,"Cc1nn2cc1Nc1ncc3c(Cl)cn(c3n1)CCCCNC(=O)C2(C)C [Example T-22, (E)-1^5-Chloro-3^3,4,4-trimethyl-1^7H,3^1H-2,6-diaza-1(2,7)-pyrrolo[2,3-d]pyrimidine-3(4,1)-pyrazolacyclodecan-5-one]",92.5
10,"Cc1nn2cc1Nc1ncc3c(Cl)cn(c3n1)CCCCN(C)C(=O)C2(C)C [Example T-23, (E)-1^5-Chloro-3^3,4,4,6-tetramethyl-1^7H,3^1H-2,6-diaza-1(2,7)-pyrrolo[2,3-d]pyrimidine-3(4,1)-pyrazolacyclodecan-5-one]",19.1
11,"Cc1nn2cc1Nc1ncc3ccc(n3n1)CCCNC(=O)C2(C)C [Example T-24, (1^1Z,3^4E)-3^3,4,4-Trimethyl-3^1H-2,6-diaza-1(2,7)-pyrrolo[2,1-f][1,2,4]triazine-3(4,1)-pyrazolacyclononan-5-one]",57.3
12,"Cc1nn2cc1Nc1ncc3c(Cl)cc(n3n1)CCCCNC(=O)C2(C)C [Example T-26, (1^1Z,3^4E)-1^5-Chloro-3^3,4,4-trimethyl-3^1H-2,6-diaza-1(2,7)-pyrrolo[2,1-f][1,2,4]triazine-3(4,1)-pyrazolacyclodecan-5-one]",98.4
13,"CC1(C)C(=O)NCCCc2cc(Cl)c3cnc(nn23)Nc2cn1nc2Cl [Example T-27, (1^1Z,3^4E)-1^53^3-Dichloro-4,4-dimethyl-3^1H-2,6-diaza-1(2,7)-pyrrolo[2,1-f][1,2,4]triazine-3(4,1)-pyrazolacyclononan-5-one]",88

# Source: patent publication EP4620959A1, “CYCLIC COMPOUNDS USED AS MULTI-TARGET KINASE INHIBITORS AND PREPARATION METHOD THEREFOR” (Shanghai Institute of Organic Chemistry, Chinese Academy of …, priority 2022, dated 2024)
